In US20100047373A9, “Method for Extracting Plants of the Genus Pelargonium, Extract Produced According to Said Method, and Use Thereof” (EMSPHARM GMBH, priority 2005, published 2010):

System: EMC virus/L929 (IFN) test model
Assay: Cytoprotective effect / IFN values in the EMC virus/L929 (IFN) test model
Type: cell-based, murine
Settings: determined from 8 standard curves
Experimental: Determining the Cytoprotective Effect by Obtaining the Values for IFN in the EMC Virus/L929 (IFN) Test Model
L929 (IFN) cells (batch no. 5577) were cultured, trypsinized, washed and counted in 100-mL culture dishes. The suspension was adjusted to 2×10^5 cells/mL and sown in microtitre plates with 2×10^4 cells/well, which were incubated over night at 37° C., 5% CO2. After that, the supernatant was replaced by 100 μL each medium control, cell control, virus control with rMuIFN-γ control, rMuIFN-γ standard (100 U/mL) and test solution, all of which were diluted lineally.
The samples were incubated for exactly eight hours at 37° C., 5% CO2. After the end of the incubation time, 100 μL each of the vital suspension used were pipetted into the vital and interferon controls and into the test solutions and again incubated over night at 37° C., 5% CO2.
After 22 hours, fully developed viral activity appeared (cell lysis must be distinctly pronounced in the vital control), so that the lysis was interrupted. The supernatants were discarded via the wash basin 100 μl of a 0.5% crystal violet solution were pipetted into each well. […] The absorption of the crystal violet staining was determined on the ELISA reader at 550 nm. […] The ED50 value of the rMuIFN-γ standard was at 1,076 U/mL (determined from 8 standard curves).

Substance: rMuIFN-γ standard: rMuIFN-γ standard (100 U/mL) used in the EMC virus/L929 (IFN) test
- ED50 value of the rMuIFN-γ standard: 1,076 U/mL
